From the supplement of paper PMC6045584
± gives the standard deviation of the averaged measurements.

Key:
17-AAG = compound: C=CCNC1=C2C[C@@H](C)C[C@H](OC)[C@H](O)[C@@H](C)/C=C(\C)[C@H](OC(N)=O)[C@@H](OC)/C=C\C=C(/C)C(=O)NC(=CC1=O)C2=O [17-AAG]; test: surviving fraction relative to DMSO-only wells; higher = less growth inhibition; settings: exposure time: 5 days
Method in brief: (§1)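 Log-phase tumour cell lines, 250–500 cells per well in 384-well plates, received inhibitors at 0.5, 1, 5, 10, 50, 100, 500 and 1000 nM continuously for five days, starting 24 hours after seeding. Viability was quantified with CellTiter-Glo luminescence and normalised to the median of DMSO-only wells to give surviving fraction. Three screens were run per line, and a line stayed in only with replicate Pearson r >0.7 and median Z' >0.3.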

DECITABINE = compound: Nc1ncn([C@H]2C[C@H](O)[C@@H](CO)O2)c(=O)n1 [DECITABINE]; test: as above; settings: exposure time: 5 days
Method in brief: as §1

Test System | surviving fraction (17-AAG; 0.5 nM) | surviving fraction (17-AAG; 1 nM) | surviving fraction (17-AAG; 5 nM) | surviving fraction (17-AAG; 10 nM) | surviving fraction (17-AAG; 50 nM) | surviving fraction (17-AAG; 100 nM) | surviving fraction (17-AAG; 500 nM) | surviving fraction (17-AAG; 1000 nM) | surviving fraction (DECITABINE; 0.5 nM) | surviving fraction (DECITABINE; 1 nM) | surviving fraction (DECITABINE; 5 nM) | surviving fraction (DECITABINE; 10 nM) | surviving fraction (DECITABINE; 50 nM) | surviving fraction (DECITABINE; 100 nM) | surviving fraction (DECITABINE; 500 nM) | surviving fraction (DECITABINE; 1000 nM)
CAL72 BONE | 1.05 ± 0.064 | 1 ± 0.016 | 0.982 ± 0.016 | 1 ± 0.017 | 1.15 ± 0.032 | 0.953 ± 0.04 | 0.249 ± 0.015 | 0.234 ± 0.011 | 1.04 ± 0.069 | 1.04 ± 0.03 | 1.03 ± 0.088 | 1.028 ± 0.01 | 1.06 ± 0.097 | 1.03 ± 0.14 | 0.958 ± 0.097 | 0.782 ± 0.2
CAL120 BREAST | 0.87 ± 0.04 | 0.861 ± 0.032 | 0.904 ± 0.016 | 0.83 ± 0.0039 | 0.226 ± 0.024 | 0.119 ± 0.015 | 0.0875 ± 0.0079 | 0.076 ± 0.0061 | 0.952 ± 0.053 | 0.929 ± 0.059 | 0.948 ± 0.072 | 0.952 ± 0.044 | 0.995 ± 0.038 | 0.967 ± 0.018 | 0.806 ± 0.017 | 0.717 ± 0.037
CASKI CERVIX | 0.745 ± 0.065 | 0.787 ± 0.04 | 0.77 ± 0.057 | 0.599 ± 0.072 | 0.1 ± 0.007 | 0.054 ± 0.0053 | 0.0283 ± 0.0025 | 0.0287 ± 0.0015 | 0.891 ± 0.044 | 0.919 ± 0.096 | 0.858 ± 0.056 | 0.898 ± 0.095 | 0.484 ± 0.033 | 0.368 ± 0.042 | 0.214 ± 0.017 | 0.209 ± 0.022
CHLA90 AUTONOMIC GANGLIA | 0.927 ± 0.033 | 0.941 ± 0.023 | 0.912 ± 0.055 | 0.889 ± 0.037 | 0.476 ± 0.012 | 0.32 ± 0.018 | 0.175 ± 0.0084 | 0.143 ± 0.0023 | 0.953 ± 0.073 | 0.934 ± 0.085 | 0.953 ± 0.06 | 0.902 ± 0.017 | 1.01 ± 0.12 | 0.994 ± 0.099 | 0.984 ± 0.079 | 1 ± 0.063
CME SYNOVIAL | 0.9 ± 0.14 | 0.767 ± 0.024 | 1.01 ± 0.12 | 0.896 ± 0.13 | 0.259 ± 0.033 | 0.222 ± 0.015 | 0.239 ± 0.029 | 0.306 ± 0.032 | 1.27 ± 0.17 | 1.09 ± 0.072 | 1.19 ± 0.081 | 1.19 ± 0.089 | 0.987 ± 0.083 | 0.812 ± 0.063 | 0.484 ± 0.022 | 0.48 ± 0.042
COLO320DM LARGE INTESTINE | 1.04 ± 0.084 | 0.959 ± 0.094 | 1.05 ± 0.038 | 1.17 ± 0.075 | 1.26 ± 0.41 | 0.955 ± 0.16 | 0.505 ± 0.032 | 0.286 ± 0.048 | 1.12 ± 0.044 | 1.12 ± 0.086 | 1.01 ± 0.076 | 1.03 ± 0.048 | 1.03 ± 0.071 | 0.928 ± 0.014 | 0.8568 ± 0.0037 | 0.792 ± 0.04
DU4475 BREAST | 0.798 ± 0.24 | 0.794 ± 0.15 | 0.764 ± 0.11 | 0.392 ± 0.11 | 0.0277 ± 0.0047 | 0.0283 ± 0.0051 | 0.027 ± 0.0066 | 0.0267 ± 0.0029 | 0.998 ± 0.059 | 0.872 ± 0.002 | 0.774 ± 0.11 | 0.782 ± 0.074 | 0.537 ± 0.066 | 0.415 ± 0.054 | 0.194 ± 0.015 | 0.167 ± 0.0061
H23 LUNG | 0.949 ± 0.026 | 0.939 ± 0.01 | 0.9313 ± 0.0035 | 0.727 ± 0.03 | 0.234 ± 0.0085 | 0.11 ± 0.014 | 0.0333 ± 0.0011 | 0.0323 ± 0.0025 | 0.987 ± 0.028 | 0.985 ± 0.034 | 0.984 ± 0.033 | 0.899 ± 0.028 | 0.803 ± 0.036 | 0.721 ± 0.057 | 0.614 ± 0.077 | 0.562 ± 0.048
HCC78 LUNG | 0.814 ± 0.2 | 0.832 ± 0.067 | 0.961 ± 0.12 | 0.511 ± 0.097 | 0.0943 ± 0.0025 | 0.086 ± 0.011 | 0.053 ± 0.013 | 0.0667 ± 0.0021 | 0.979 ± 0.07 | 1.01 ± 0.11 | 0.899 ± 0.15 | 0.913 ± 0.12 | 0.777 ± 0.21 | 0.709 ± 0.025 | 0.213 ± 0.037 | 0.166 ± 0.036
HCC202 BREAST | 0.965 ± 0.13 | 0.988 ± 0.31 | 0.715 ± 0.081 | 0.537 ± 0.17 | 0.264 ± 0.053 | 0.177 ± 0.021 | 0.171 ± 0.038 | 0.161 ± 0.027 | 1 ± 0.21 | 1.25 ± 0.5 | 1.23 ± 0.27 | 1.06 ± 0.27 | 1.09 ± 0.26 | 1.09 ± 0.16 | 1.23 ± 0.18 | 1.009 ± 0.0014
